From patent publication US8362031B2, “Lonidamine analogues and treatment of polycystic kidney disease” (University of Kansas, priority 2004, dated 2013)
“Also recorded” adds a separate entry of the source.

How the values were obtained:
[1] = tested on: Male Long Evans rats; experiment: In vivo antispermatogenic testing in Long Evans rats; conditions: for Mortality (25 mg/kg) / Response 25 mg/kg: 25 mg/kg single i.p. injection; for Response 25 mg/kg / Response 200 mg/kg: animals responding out of animals surviving, five days following injection; for Mortality (200 mg/kg) / Response 200 mg/kg: 200 mg/kg single i.p. injection; for Staging 25 mg/kg / Staging 200 mg/kg: seminiferous tubule staging; for Staging 25 mg/kg: 25 mg/kg i.p.; for Staging 200 mg/kg: 200 mg/kg i.p.
[2] = tested on: rats; experiment: Toxicology: organs sectioned and examined after dosing; assay type: in vivo; conditions: two animals examined, findings per animal
Description: In at least two of the animals in each group, the pancreas, right kidney and part of the liver, heart, spleen, and lung were removed and evaluated for toxic effects.
The toxicology of animals receiving some of the compounds of the present invention IP and/or oral was examined. At the time of sacrifice samples of liver, pancreas, heart, lung, spleen and kidney were removed, visually inspected, and immersion fixed in Bouin's solution for a minimum of 48 hours. All organs were then sectioned and examined for evidence of necrosis, inflammation, hemorrhage, and possible tumors. The major veins in each tissue were also examined for distention, especially in the liver and pancreas, and any other abnormalities are compared to known histopathological states. In addition to the above, the heart was examined for evidence of fibrosis in the muscular walls, and to compare the thickness of the ventricular walls. The pancreas was examined mainly for calcium deposits, while the lung was checked for signs of any exudates or hemorrhage, especially in the alveolar spaces. Finally, the kidney was examined mainly for microscopic hemorrhages, tubular necrosis or alterations in the glomeruli in the cortex.
In this example, the effects of RC-MC-30 were compared with those of lonidamine in sexually mature rats. As discussed above, each of the rats (8 total) received a single injection and were sacrificed five days after injection and examined.

[3] = tested on: Salmonella Typhimurium TA 100; experiment: Ames test for mutagenicity (plate assay, colony count); conditions: 48 hours at 37° C.; for Ames test (+)S9 0.1 mg/pl. / Ames test (+)S9 1 mg/pl. / Ames test (+)S9 10 mg/pl.: (+)S9 mix; for Ames test (−)S9 0.1 mg/pl. / Ames test (−)S9 1 mg/pl. / Ames test (−)S9 10 mg/pl.: (−)S9 mix

Structure (SMILES)	Mortality (25 mg/kg) [1]	Response 25 mg/kg [1]	Toxicology: liver, lung, pancreas, spleen, heart and kidney (histology) ([2]; 25 mg/kg)	Ames test (+)S9 0.1 mg/pl. [3]	Ames test (+)S9 1 mg/pl. [3]	Ames test (+)S9 10 mg/pl. [3]	Ames test (−)S9 0.1 mg/pl. [3]	Ames test (−)S9 1 mg/pl. [3]	Ames test (−)S9 10 mg/pl. [3]	Mortality (200 mg/kg) [1]	Response 200 mg/kg [1]	Staging 25 mg/kg [1]	Staging 200 mg/kg [1]	Toxicology: liver, lung, pancreas, spleen, heart and kidney (histology) ([2]; 200 mg/kg, listed as JSW-1-162)
COc1ccc2c(n1)c(C(=O)O)nn2Cc1ccc(Cl)cc1Cl [JWS-1-144, 1-(2,4-dichlorobenzyl)-5-methoxy-1H-pyrazolo[4,3-b]pyridine-3-carboxylic acid]	0/5	0/5	liver, lung, pancreas, spleen, heart and kidney that appeared within normal limits	Pass	Pass	Pass	Pass	Pass	Pass	–	–	–	–	–
COC(=O)c1nn(Cc2ccc(F)cc2F)c2cc(C(F)(F)F)ccc12 [JWS-1-270, 1-(2,4-difluorobenzyl)-6-trifluoromethyl-1H-indazole-3-carboxylic acid methyl ester]	0/5	0/5	–	Pass	Pass	Pass	Pass	Pass	Pass	0/5	0/5	–	–	–
O=C(O)c1nn(Cc2ccc(F)cc2F)c2cc(C(F)(F)F)ccc12 [JWS-1-276, 1-(2,4-difluorobenzyl)-6-trifluoromethyl-1H-indazole-3-carboxylic acid]	0/5	0/5	–	Pass	Pass	Pass	Pass	Pass	Pass	0/5	0/5	–	–	–
O=C(O)/C=C/c1nn(Cc2ccc(Cl)cc2Cl)c2ccccc12 [AF2785, reference compound]	0/5	1/5	–	–	–	–	–	–	–	2/6	3/4	5.5	3.4	–
O=C(O)c1nn(Cc2ccc(Cl)cc2Cl)c2cc(Cl)ccc12 [DD-MC-I, 6-chloro-1-(2,4-dichlorobenzyl)-1H-indazole-3-carboxylic acid]	0/5	0/5	–	Pass	Pass	Pass	Pass	Pass	Pass	0/5	2/5	–	–	–
O=C(O)c1nn(Cc2ccc(Cl)cc2Cl)c2ncccc12 [RC-MC-86, 1-(2,4-dichlorobenzyl)-1H-pyrazolo[3,4-b]pyridine-3-carboxylic acid]	0/5	0/5	–	Pass	Pass	Pass	Pass	Pass	Pass	0/5	5/5	–	–	–
NNC(=O)c1nn(Cc2ccc(Cl)cc2Cl)c2ncccc12 [RC-MC-60, 1-(2,4-dichlorobenzyl)-1H-pyrazolo[3,4-b]pyridine-3-carboxylic acid hydrazide]	0/5	0/5	–	Pass	Pass	Pass	Pass	Pass	Pass	0/5	0/5	–	–	–
NNC(=O)c1nn(Cc2ccc(Cl)cc2Cl)c2cc(C(F)(F)F)ccc12 [RC-MC-101, 1-(2,4-dichlorobenzyl)-6-trifluoromethyl-1H-indazole-3-carboxylic acid hydrazide]	0/5	0/5	–	Pass	Pass	Pass	Pass	Pass	Pass	0/5	0/5	–	–	–
NNC(=O)c1nn(Cc2ccc(Cl)cc2Cl)c2ccccc12 [AF2364, reference compound]	0/5	3/5	–	–	–	–	–	–	–	0/5	5/5	3.5	2.1	–
COC(=O)c1nn(Cc2ccc(F)cc2F)c2cc(Cl)ccc12 [JWS-1-280, 1-(2,4-difluorobenzyl)-6-chloro-1H-indazole-3-carboxylic acid methyl ester]	0/5	0/5	–	Pass	Pass	Pass	Pass	Pass	Pass	0/5	0/5	–	–	–
COC(=O)c1nn(Cc2ccc(Cl)cc2Cl)c2ccc(C(F)(F)F)cc12 [JWS-1-254, 1-(2,4-dichlorobenzyl)-5-trifluoromethyl-1H-indazole-3-carboxylic acid methyl ester]	0/5	0/5	–	Pass	Pass	Pass	Pass	Pass	Pass	0/5	0/5	–	–	–
O=C(O)c1nn(Cc2ccc(Cl)cc2Cl)c2cc(F)ccc12 [JWS-1-162, 1-(2,4-dichlorobenzyl)-6-fluoro-1H-indazole-3-carboxylic acid]	–	–	liver, lung, pancreas, spleen, heart and kidney all appeared within normal limits	Pass	Pass	Pass	Pass	Pass	Pass	–	–	–	–	The lung had scattered hemorrhagic patches surrounding many of the small bronchioles; also recorded: The lung had moderate regions showing thickening of the alveolar walls, with a clear exudates slightly stained by eosin filling the alveoli
NNC(=O)c1nn(Cc2ccc(F)cc2F)c2cc(C(F)(F)F)ccc12 [JWS-1-274, 1-(2,4-difluorobenzyl)-6-trifluoromethyl-1H-indazole-3-carboxylic acid hydrazide]	0/5	0/5	–	Pass	Pass	Pass	Pass	Pass	Pass	0/5	0/5	–	–	–
